Experimental data: patent US20220325239A1, “CELL CULTURE” (AGENCY FOR SCIENCE, TECHNOLOGY AND RESEARCH, priority 2019, published 2022)

Columns and labels:
[1] = system: FINE cells; test: Withdrawal or replacement of AZD5438 / Dasatinib in FINE culture; format: cell-based, human; settings: for morphology after withdrawal from FINE: withdrawal for 3 passages; for sustaining feeder-free naïve hESCs when replacing Dasatinib in FINE: 2 passages
From the text: FIG. 4A is a diagram showing brightfield and immunofluorescence staining of KLF4, TFE3 and KLF17 in FINE culture after withdrawal of AZD, Dasa or both for 3 passages. Scale bar=50 μm.
FIG. 4B is a diagram showing quantification of fraction of nuclei positive for naïve-associated transcription factors in hESCs cultured in FINE after withdrawal of AZD, Dasa or both for 3 passages. Mean±SD of three independent experiments.
FIG. 4C is a diagram showing expression of blastocyst-associated transcripts in hESCs cultured in FINE after withdrawal of AZD, Dasa or both for 2 passages. Mean±SD of three independent qPCR experiments.
FIG. 4D and FIG. 4E are diagrams showing expression of blastocyst-associated transcripts in hESCs cultured in FINE after (D) replacement of Dasa with other Src and Bcr-Abl inhibitors or (E) replacement of AZD with Dinaciclib (in H9 line) for 2 passages. Mean±SD of three independent qPCR experiments.
Therefore, we wanted to test if both are also important for the maintenance of naivety in FINE.

[2] = system: cellular CDK substrates; settings: cited from earlier work
[3] = system: LTR7Y-zsGreen reporter cells; test: High-throughput small molecule screen for feeder-free maintenance of naïve hESCs (LTR7Y-zsGreen fluorescence); format: cell-based, human; settings: 3iL without feeders
Procedure: 3,000 cells cultured in mTeSR1 (STEMCELL Technologies) or 3iL were seeded per well into 384-well plates (Greiner) coated with 30× Matrigel (Corning) or 30× growth factor reduced Matrigel (Corning) in 45 µl of medium. 4 hours after seeding, cells were treated with anti-cancer and anti-kinase libraries (Selleckchem; kinase inhibitor screening library—customised collection of 273 kinase inhibitors, anti-cancer compound library—customized collection of 349 bioactive compounds). Small molecules were used at 3 different concentrations: 100 nM, 1 μM and 10 μM for each condition. 48 hours after the treatment, culture media was renewed concomitant with a second round of treatment with the compounds. […] Images were processed and fluorescence signal was quantified using Columbus Image Data Storage and Analysis System (PerkinElmer). […] Z-score for zsGreen fluorescence was calculated using formula: z=(X−μ)/s.d. where μ—mean, s.d.—standard deviation of whole population, X−integrated intensity of zsGreen divided by total number of cells. […]
We first ensured the quality of the screen by certifying the absence of intra-plate layout biases (FIG. 8I), proper inter-plate alignment (FIG. 8J) and good correlation between replicates (FIG. 8K). Z-scores were then calculated, and compounds that reproducibly scored above noise (z>2 in at least 2 replicates) were regarded as hits (FIG. 1B, S1L). […]

[4] = system: human tumor xenograft; settings: oral, 50 mg/kg/12 h or 75 mg/kg/day, mice; cited from earlier work
[5] = system: human cancer cultures; settings: broad spectrum of human cancer cultures; cited from earlier work
[6] = system: naïve hESCs; test: Naïve pluripotency marker expression after short-term supplementation of hits upon feeder withdrawal (qPCR); format: cell-based, human
From the text: 3iL and 4 iLA media were supplemented with small molecule compounds at various concentrations for single and combinatory treatments. Small molecules used in the study: Dasatinib (Selleckchem), AZD5438 (TOCRIS), CHIR-98014 (Sigma), Crenolanib (Selleckchem), Saracatinib (Selleckchem), Src Inhibitor-1 (Sigma), Nilotinib (STEMCELL Technologies), Imatinib (STEMCELL Technologies), Dinaciclib (Selleckchem), WH-4-023 (Sigma).
(§1) Total RNA was extracted using TRIzol reagent (Invitrogen) according to manufacturer's protocol followed by DNAase I treatment (Ambion).
(§2) 250-1000 ng of DNAase treated RNA was reverse transcribed using SuperScript II (Invitrogen) and oligo-dT primers (Invitrogen) according to manufacturer's instructions. Reactions were performed in final volume of 20μ1. cDNA was diluted before qPCR analysis.
qPCR was performed using KAPA SYBR FAST master mix (KAPA Biosystem) following standard procedures. qPCR reactions were performed in biological duplicates or triplicates in 384-well plates on the ViiA™ 7 Real-Time PCR System (Life Technologies). Two technical replicates were carried out for each qPCR reaction and data was normalised to GAPDH. The relative abundance of transcripts was calculated using ΔΔC(T) method. […]

[7] = system: hESCs; test: Expression of naïve / blastocyst / 8-cell markers under culture conditions (qPCR, immunofluorescence); format: cell-based, human; settings: PD0325901 reduced from 1 μM to 0.3 μM, H9
Procedure: as §1, §2
qPCR was performed using KAPA SYBR FAST master mix (KAPA Biosystem) following standard procedures. qPCR reactions were performed in biological duplicates or triplicates in 384-well plates on the ViiA™ 7 Real-Time PCR System (Life Technologies). Two technical replicates were carried out for each qPCR reaction and data was normalised to GAPDH. The relative abundance of transcripts was calculated using ΔΔC(T) method.
Before fixation with 4% formaldehyde (Sigma) cells were washed with PBS (Gibco) in tissue culture plates (Falcon) for 30 minutes at room temperature. Permeabilization was performed with 1% of Triton-X 100 in PBS followed by blocking step performed in blocking buffer (blocking buffer—8% FBS in PBS-T (PBS-T 1% Tween in PBS)) each for 30 minutes at room temperature. Cells were incubated with primary antibodies, diluted in blocking buffer, overnight at 4° C. with gentle agitation. […]

[8] = system: H9 cells; test: Karyotyping / cytogenetic analysis; format: cell-based, human; settings: PD0325901 reduced from 1 μM to 0.3 μM
Procedure: FIG. 7B is a diagram showing summary of cytogenetic analysis of H9 cells (top) under various naïve culture conditions (rows) and passage numbers (columns). Representative karyotypes at various passage numbers in FINE (bottom).
Various hESCs lines were seeded into glass cover slip slides as single cells. Karyotyping service including colcemid treatment and G-band analysis was outsourced with Parkway Laboratory Services.

[9] = system: hESC; test: Adaptation and survival of feeder-free hESCs in 4iLA supplemented with chemical combinations (C1-C21); format: cell-based, human; settings: condition 19 background
From the text: FIG. 2C is a diagram showing relative survival of hESC culture under 4 iLA supplemented with different chemical combinations conditions (C1-C21) over 9 passages without feeders. 4 iLA was included as control.
We next sought to find a condition that enables stable naïve culture by adapting feeder-free primed hESCs onto media supplemented by one or more of the hits at various concentrations (FIG. 2C, Table E2, below).

SMILES: Cc1ncc(-c2ccnc(Nc3ccc(S(C)(=O)=O)cc3)n2)n1C(C)C [AZD5438, 4-[2-Methyl-1-(1-methylethyl)-1H-imidazol-5-yl]-N-[4-(methylsulfonyl)phenyl]-2-pyrimidinamine]
- morphology after withdrawal from FINE [1]: caused dispersal of the compact morphology
- inhibition of cellular CDK substrates phosphorylation [2]: effectively inhibits
- outcome of the screen (hit) [3]: identified novel regulators of naïve pluripotency
- efficacy against human tumor xenograft growth [4]: efficacious
- antiproliferation activity [5]: displays antiproliferation activity
- effect on downregulation of naïve pluripotency markers including LTR7Y ([6]; 3iL, RNA after 6 days): consistently attenuated downregulation

SMILES: Cc1nc(Nc2ncc(C(=O)Nc3c(C)cccc3Cl)s2)cc(N2CCN(CCO)CC2)n1.O [Dasatinib, N-(2-chloro-6-methylphenyl)-2-[[6-[4-(2-hydroxyethyl)-1-piperazinyl]-2-methyl-4-pyrimidinyl]amino]-5-thiazole carboxamide monohydrate]
- loss of naivety upon withdrawal from FINE ([1]; compared with AZD5438 withdrawal): more pronounced effect
- morphology after withdrawal from FINE [1]: caused dispersal of the compact morphology
- outcome of the screen (hit) [3]: identified novel regulators of naïve pluripotency
- effect on downregulation of naïve pluripotency markers ([6]; 4iLA, RNA after 12 days): had the same effect

SMILES: Cc1ccc(NC(=O)c2ccc(CN3CCN(C)CC3)cc2)cc1Nc1nccc(-c2cccnc2)n1 [Imatinib]
- sustaining feeder-free naïve hESCs when replacing Dasatinib in FINE [1]: failed to sustain

SMILES: Cc1cn(-c2cc(NC(=O)c3ccc(C)c(Nc4nccc(-c5cccnc5)n4)c3)cc(C(F)(F)F)c2)cn1 [Nilotinib]
- sustaining feeder-free naïve hESCs when replacing Dasatinib in FINE [1]: failed to sustain

SMILES: O=C(NOC[C@H](O)CO)c1ccc(F)c(F)c1Nc1ccc(I)cc1F [PD0325901, N-[(2R)-2,3-dihydroxypropoxy]-3,4-difluoro-2-(2-fluoro-4-iodoanilino)benzamide]
- effect of lowered concentration in FINE on naïve pluripotent marker expression [7]: slight adverse effect
- effect of lowered concentration in FINE on acquisition of chromosomal abnormalities [8]: further delayed acquisition of chromosomal abnormalities

SMILES: COc1cc2ncnc(Nc3ccc(Oc4ccccc4)cc3)c2cc1OC [SRCi]
- sustaining feeder-free naïve hESCs when replacing Dasatinib in FINE [1]: failed to sustain

SMILES: COc1ccc(N(C(=O)Oc2c(C)cccc2C)c2ccnc(Nc3ccc(N4CCN(C)CC4)cc3)n2)c(OC)c1 [WH-4-023]
- requirement for adaptation and maintenance of feeder-free naïve cells [9]: dispensable
- sustaining feeder-free naïve hESCs when replacing Dasatinib in FINE [1]: failed to sustain
